Results from publication PMC7316778 (Nature Communications, 2020).

Experiments:
Set-up in all cases: human FES cDNA encoding residues 448–822 or human FER cDNA encoding residues 448–820 was amplified by PCR; made in house; host or cells: E. coli BL21(DE3), co-expressing YopH phosphatase
FES^S700C [1] = target: T1, FES^S700C (Homo sapiens, UniProt P07332, S700C); experiment: In vitro TR-FRET kinase assay; format: biochemical; details: TR-FRET assay, 5 µM ATP; n = 3; read-out: pIC50 FES^S700C (converted)
FES^S700C [2] = target: T1, FES^S700C; experiment: PamChip microarray peptide phosphorylation; format: biochemical; details: for Mean signal, time course: Figure 7f, S700C + WEL028, n 3
FES^S700C [3] = target: T1, FES^S700C; experiment: MS identification of covalent inhibitor-peptide adduct; details: 1 μM, 30 min, rt
Protocol: Purified FES^S700C (1.2 μg in 38 μL) was treated with WEL028 (2 μL of 20× concentrated stock in DMSO, 1 μM final concentration) or vehicle (as negative control) for 30 min at rt. […] Gel was stained using Coomassie Brilliant Blue R-250, bands were cut out of gel into small blocks and then destained in 500 μL of 50% MeOH in 100 mM NH4HCO3 pH 8.0 for 10 min at rt. Acetonitrile (500 μL) was added for gel blocks dehydration, after which gel blocks were digested with sequencing-grade trypsin (Promega) in 250 μL trypsin buffer (100 mM Tris pH 7.5, 100 mM NaCl, 1 mM CaCl2, 10% acetonitrile) overnight at 37 °C with vigorous shaking. […] Samples were subsequently desalted using StageTips with C18 material. […]
Tryptic peptides were analyzed on a Surveyor nano-LC system (Thermo) hyphenated to a LTQ-Orbitrap mass spectrometer (Thermo) (n = 1)[69]. […] Samples of 10 µl were separated via a trap-elute setup at 250 nL/min flow and analyzed by data-dependent acquisition of one full scan/ top 3 method. For shotgun proteomics, fragmented precursor ions measured twice within 10 s were dynamically excluded for 60 s and ions with z < 2 or unassigned charges were not analyzed. Peptide ID was determined with the Mascot search engine. […]

T1 sequence (P07332 448-822 S700C): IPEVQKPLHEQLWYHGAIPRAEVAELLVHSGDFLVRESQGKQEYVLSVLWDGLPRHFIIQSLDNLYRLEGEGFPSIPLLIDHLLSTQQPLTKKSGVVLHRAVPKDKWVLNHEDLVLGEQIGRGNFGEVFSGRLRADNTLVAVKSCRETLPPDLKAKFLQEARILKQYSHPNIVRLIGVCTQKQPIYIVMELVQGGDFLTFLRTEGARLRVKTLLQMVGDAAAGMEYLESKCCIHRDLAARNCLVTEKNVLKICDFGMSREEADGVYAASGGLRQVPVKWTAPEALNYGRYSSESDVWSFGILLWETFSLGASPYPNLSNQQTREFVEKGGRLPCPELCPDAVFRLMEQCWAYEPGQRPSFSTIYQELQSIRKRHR

C#CCOc1ccc(Nc2ncc(Cl)c(Nc3ccccc3NC(=O)C=C)n2)c(OC)c1 [Compound 6]
IC50 (FES^S700C [1]): 3.98 nM
Mean signal, time course (FES^S700C [2]; time 0 min): -48.0
Mean signal, time course (FES^S700C [2]; time 5 min): -46.0
Mean signal, time course (FES^S700C [2]; time 10 min): -41.0
Mean signal, time course (FES^S700C [2]; time 15 min): -40.0
Mean signal, time course (FES^S700C [2]; time 20 min): -38.0
Mean signal, time course (FES^S700C [2]; time 25 min): -35.0
Mean signal, time course (FES^S700C [2]; time 30 min): -33.0
Mean signal, time course (FES^S700C [2]; time 35 min): -32.0
Mean signal, time course (FES^S700C [2]; time 40 min): -32.0
Mean signal, time course (FES^S700C [2]; time 45 min): -30.0
Mean signal, time course (FES^S700C [2]; time 50 min): -26.0
Mean signal, time course (FES^S700C [2]; time 55 min): -29.0
Mean signal, time course (FES^S700C [2]; time 60 min): -29.0
ZAP70 peptide phosphorylation (FES^S700C [2]; WEL028 100 nM): abolished peptide phosphorylation
Covalent adduct by LC-MS/MS (FES^S700C [3]): covalent addition of WEL028 to Cys700
